Test results published in ChEMBL document CHEMBL1201862, “PubChem BioAssay data set” (2004).
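Briefly, cells in 96-well plates were exposed to five compound concentrations for 48 h, and endpoints were estimated by linear interpolation. GI50 = concentration required for 50% inhibition of growth.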 Activity calls are given as the source filed them. Rule as the data show it: active = GI50 up to about 1.1 µM and inactive = higher.

Experiments:
Test in all cases: NCI tumour cell line growth inhibition, 48 h
HCC 2998 = tested on: HCC 2998
786-0 = tested on: 786-0
NCI-H23 = tested on: NCI-H23
CAKI-1 = tested on: CAKI-1
SK-MEL-2 = tested on: SK-MEL-2
SK-MEL-28 = tested on: SK-MEL-28
T47D = tested on: T47D
Malme-3M = tested on: Malme-3M
HCT-116 = tested on: HCT-116
RXF 393 = tested on: RXF 393
HOP-92 = tested on: HOP-92
OVCAR-3 = tested on: OVCAR-3
BT-549 = tested on: BT-549
A549 = tested on: A549
SNB-19 = tested on: SNB-19
NCI-H226 = tested on: NCI-H226
MOLT-4 = tested on: MOLT-4
SK-MEL-5 = tested on: SK-MEL-5
SF-539 = tested on: SF-539
MDA-N = tested on: MDA-N

| Structure (SMILES) | GI50 (HCC 2998) | GI50 (786-0) | GI50 (NCI-H23) | GI50 (CAKI-1) | GI50 (SK-MEL-2) | GI50 (SK-MEL-28) | GI50 (T47D) | GI50 (Malme-3M) | GI50 (HCT-116) | GI50 (RXF 393) | GI50 (HOP-92) | GI50 (OVCAR-3) | GI50 (BT-549) | GI50 (A549) | GI50 (SNB-19) | GI50 (NCI-H226) | GI50 (MOLT-4) | GI50 (SK-MEL-5) | GI50 (SF-539) | GI50 (MDA-N) |
| --- | --- | --- | --- | --- | --- | --- | --- | --- | --- | --- | --- | --- | --- | --- | --- | --- | --- | --- | --- | --- |
| COc1cccc(/C=C\c2ccc(O)cc2)c1 | 23.8 µM (inactive) | 10.4 µM (inactive) | 15.1 µM (inactive) | 17.7 µM (inactive) | 25.8 µM (inactive) | 40.1 µM (inactive) | 18.7 µM (inactive) | 20.2 µM (inactive) | 22.7 µM (inactive) | 19.5 µM (inactive) | 18.2 µM (inactive) | 16.8 µM (inactive) | 17.5 µM (inactive) | 16.9 µM (inactive) | 29.7 µM (inactive) | 28.2 µM (inactive) | 3.6 µM (inactive) | 17.6 µM (inactive) | 13.7 µM (inactive) | 21.1 µM (inactive) |
| C=CC(=O)N1C/C(=C\c2ccc(Cl)cc2)C(=O)/C(=C/c2ccc(Cl)cc2)C1 | 0.296 µM (active) | 0.21 µM (active) | 0.492 µM (active) | 0.343 µM (active) | 1.32 µM (inactive) | 0.442 µM (active) | 2 µM (inactive) | 0.973 µM (active) | 0.0923 µM (active) | 0.275 µM (active) | 1.54 µM (inactive) | 0.31 µM (active) | 0.329 µM (active) | 0.356 µM (active) | 1 µM (active) | 0.237 µM (active) | 0.3 µM (active) | 1.36 µM (inactive) | 0.188 µM (active) | 0.214 µM (active) |
| CSC1(C(=O)O)C2CCC3C2CCC31 (configuration not stated) | > 100 µM (inactive) | > 100 µM (inactive) | > 100 µM (inactive) | > 100 µM (inactive) | > 100 µM (inactive) | > 100 µM (inactive) | > 100 µM (inactive) | > 100 µM (inactive) | > 100 µM (inactive) | > 100 µM (inactive) | > 100 µM (inactive) | > 100 µM (inactive) | > 100 µM (inactive) | > 100 µM (inactive) | > 100 µM (inactive) | > 100 µM (inactive) | > 100 µM (inactive) | > 100 µM (inactive) | > 100 µM (inactive) | > 100 µM (inactive) |
| Cc1ccc2cccc(OC(=O)c3cc4c(cc3Cl)Sc3nccn3S4(=O)=O)c2n1 | 5.75 µM (inactive) | 17 µM (inactive) | 16.3 µM (inactive) | 26.6 µM (inactive) | 11.5 µM (inactive) | 10.2 µM (inactive) | 4.44 µM (inactive) | 17.5 µM (inactive) | 6.53 µM (inactive) | 5.16 µM (inactive) | 14.6 µM (inactive) | 2.75 µM (inactive) | 17.4 µM (inactive) | 11.2 µM (inactive) | 12.9 µM (inactive) | 21 µM (inactive) | 4.55 µM (inactive) | 12.3 µM (inactive) | 5.61 µM (inactive) | 14.4 µM (inactive) |
| O=c1[nH]c(=O)n(C2CC(O)C(CO)O2)c2nc3ccc4ccccc4c3nc12 (configuration not stated) | 59 µM (inactive) | 74.3 µM (inactive) | > 100 µM (inactive) | > 100 µM (inactive) | 95.5 µM (inactive) | 94.2 µM (inactive) | 93.8 µM (inactive) | > 100 µM (inactive) | > 100 µM (inactive) | 56.6 µM (inactive) | 25.6 µM (inactive) | > 100 µM (inactive) | 66.4 µM (inactive) | > 100 µM (inactive) | 30.5 µM (inactive) | 17.8 µM (inactive) | 24.5 µM (inactive) | 54.1 µM (inactive) | 92.9 µM (inactive) | > 100 µM (inactive) |
| COC(=O)/C(=N\N)C(C(=O)C(=O)Nc1cc(Cl)ccc1Cl)c1nc2ccc([N+](=O)[O-])cc2nc1O (configuration not stated) | > 100 µM (inactive) | > 100 µM (inactive) | > 100 µM (inactive) | > 100 µM (inactive) | > 100 µM (inactive) | > 100 µM (inactive) | > 100 µM (inactive) | > 100 µM (inactive) | > 100 µM (inactive) | > 100 µM (inactive) | > 100 µM (inactive) | 74.3 µM (inactive) | > 100 µM (inactive) | > 100 µM (inactive) |  | > 100 µM (inactive) | > 100 µM (inactive) | > 100 µM (inactive) | > 100 µM (inactive) | > 100 µM (inactive) |
| CC(=O)c1cccc(NC(=O)C(=O)C(c2cnc3ccc([N+](=O)[O-])cc3n2)[N+](=O)[O-])c1 (configuration not stated) | 69.8 µM (inactive) | > 100 µM (inactive) | > 100 µM (inactive) | > 100 µM (inactive) | > 100 µM (inactive) | > 100 µM (inactive) | > 100 µM (inactive) | > 100 µM (inactive) | 58.3 µM (inactive) | 96.6 µM (inactive) | > 100 µM (inactive) | > 100 µM (inactive) | 53 µM (inactive) |  | > 100 µM (inactive) | > 100 µM (inactive) | 36.7 µM (inactive) |  | > 100 µM (inactive) | > 100 µM (inactive) |
